Here are results for 37 molecules from patent US7781591B2, “Substituted 3-cyanopyridines as protein kinase inhibitors” (Wyeth LLC, priority 2006, dated 2010).

Molecules are shown by their SMILES. Like-named read-outs stand apart in the source and are kept apart here.

For the test, the target named is T1, human PKCθ full length enzyme (Homo sapiens, UniProt Q04759).
T1 construct: human PKCθ full length enzyme (Panvera Cat# P2996); purchased Panvera P2996
Put plainly: PKCθ IMAP assay (fluorescence polarization). The test is classed as biochemical.

Setting [1] is: human PKCθ full length enzyme, IMAP, average value, read-out: IC50 PKCθ IMAP.

T1 sequence (Q04759 whole entry): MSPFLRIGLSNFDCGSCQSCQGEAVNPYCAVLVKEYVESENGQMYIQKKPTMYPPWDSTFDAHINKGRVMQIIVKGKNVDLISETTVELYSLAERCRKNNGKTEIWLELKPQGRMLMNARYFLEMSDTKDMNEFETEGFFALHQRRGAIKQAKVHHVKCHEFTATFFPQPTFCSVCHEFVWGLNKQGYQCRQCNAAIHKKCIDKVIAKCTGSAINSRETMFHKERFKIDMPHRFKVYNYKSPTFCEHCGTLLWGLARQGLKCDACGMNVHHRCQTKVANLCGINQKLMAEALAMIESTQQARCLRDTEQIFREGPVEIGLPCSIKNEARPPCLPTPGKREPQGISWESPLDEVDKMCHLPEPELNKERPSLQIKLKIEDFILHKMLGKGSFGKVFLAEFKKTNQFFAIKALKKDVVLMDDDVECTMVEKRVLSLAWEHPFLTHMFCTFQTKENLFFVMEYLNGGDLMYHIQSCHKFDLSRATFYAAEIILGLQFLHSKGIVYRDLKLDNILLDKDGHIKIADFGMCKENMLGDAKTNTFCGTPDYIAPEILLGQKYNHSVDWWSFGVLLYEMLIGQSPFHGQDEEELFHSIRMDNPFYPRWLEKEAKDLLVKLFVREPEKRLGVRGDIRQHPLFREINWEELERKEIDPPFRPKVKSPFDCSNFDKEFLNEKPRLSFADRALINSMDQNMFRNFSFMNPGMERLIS

Turning to `Cc1c(Nc2c(C#N)cncc2-c2ccc(CN3CCS(=O)(=O)CC3)o2)ccc2[nH]ccc12` [Compound 487, 5-{5-[(1,1-dioxidothiomorpholin-4-yl)methyl]-2-furyl}-4-[(4-methyl-1H-indol-5-yl)amino]nicotinonitrile], the IC50 under setting [1] came to 16 nM.
Still for that read-out and setting: the value for `COc1ccc(-c2cncc(C#N)c2Nc2cnc3[nH]ccc3c2)cc1OC` [Compound 488, 5-(3,4-dimethoxyphenyl)-4-(1H-pyrrolo[2,3-b]pyridin-5-ylamino)nicotinonitrile] was 2020 nM; that for `Cc1c(Nc2c(C#N)cncc2-c2ccc(OCCCCCl)cc2)ccc2[nH]ccc12` [Compound 490, 5-[4-(4-chlorobutoxy)phenyl]-4-[(4-methyl-1H-indol-5-yl)amino]nicotinonitrile] was 51 nM; that for `Cc1c(Nc2c(C#N)cncc2-c2ccc(OCCCCN3CCN(C)CC3)cc2)ccc2[nH]ccc12` [Compound 491, 4-[(4-methyl-1H-indol-5-yl)amino]-5-{4-[4-(4-methylpiperazin-1-yl)butoxy]phenyl}nicotinonitrile] was 15 nM.
Consider `COCCOc1ccc(-c2cncc(C#N)c2Nc2cnc3[nH]ccc3c2Cl)cc1OC` [Compound 492, 4-[(4-chloro-1H-pyrrolo[2,3-b]pyridin-5-yl)amino]-5-[3-methoxy-4-(2-methoxyethoxy)phenyl]nicotinonitrile], for which the half-inhibitory concentration (IC50) under setting [1] amounted to 61 nM.
Turning to `Cc1cc2[nH]ccc2cc1Nc1c(C#N)cncc1-c1ccc(OCCN2CCN(C)CC2)cc1` [Compound 496, 4-[(6-methyl-1H-indol-5-yl)amino]-5-{4-[2-(4-methylpiperazin-1-yl)ethoxy]phenyl}nicotinonitrile], the concentration for half-maximal inhibition (IC50) under setting [1] stood at 33 nM.
As to `Cc1cc2[nH]ccc2cc1Nc1c(C#N)cncc1-c1cc2cc(CN3CCN(C)CC3)ccc2o1` [Compound 497, 4-[(6-methyl-1H-indol-5-yl)amino]-5-{5-[(4-methylpiperazin-1-yl)methyl]-1-benzofuran-2-yl}nicotinonitrile], the IC50 under setting [1] was determined as 7 nM.
In the case of `COc1ccc(-c2cncc(C#N)c2Nc2cc(Cl)c3[nH]ccc3c2C)cc1OC` [Compound 498, 4-[(7-chloro-4-methyl-1H-indol-5-yl)amino]-5-(3,4-dimethoxyphenyl)nicotinonitrile], the IC50 under setting [1] came to 16 nM.
Consider `Cc1cc2[nH]ccc2cc1Nc1c(C#N)cncc1-c1cc2cc(CO)ccc2o1` [Compound 499, 5-[5-(hydroxymethyl)-1-benzofuran-2-yl]-4-[(6-methyl-1H-indol-5-yl)amino]nicotinonitrile], for which the IC50 under setting [1] was 3 nM.
As to `CCN(CC)Cc1ccc2oc(-c3cncc(C#N)c3Nc3cc4cc[nH]c4cc3C)cc2c1` [Compound 500, 5-{5-[(diethylamino)methyl]-1-benzofuran-2-yl}-4-[(6-methyl-1H-indol-5-yl)amino]nicotinonitrile], the IC50 under setting [1] is 5 nM.
The same measure, in the same setting: the value for `Cc1c(Nc2c(C#N)cncc2-c2cccc(OCCCCCl)c2)ccc2[nH]ccc12` [Compound 501, 5-[3-(4-chlorobutoxy)phenyl]-4-[(4-methyl-1H-indol-5-yl)amino]nicotinonitrile] was 89 nM.
The same measure, in the same setting: as for `Cc1c(Nc2c(C#N)cncc2-c2cccc(OCCCCN3CCN(C)CC3)c2)ccc2[nH]ccc12` [Compound 502, 4-[(4-methyl-1H-indol-5-yl)amino]-5-{3-[4-(4-methylpiperazin-1-yl)butoxy]phenyl}nicotinonitrile], the figure is 21 nM; as for `Cc1c(Nc2c(C#N)cncc2-c2coc(CN3CCN(C)CC3)c2)ccc2[nH]ccc12` [Compound 503, 4-[(4-methyl-1H-indol-5-yl)amino]-5-{5-[(4-methylpiperazin-1-yl)methyl]-3-furyl}nicotinonitrile], 12 nM; as for `Cc1cc2[nH]ccc2cc1Nc1c(C#N)cncc1-c1ccc(OCCN2CCCCC2)cc1` [Compound 504, 4-[(6-methyl-1H-indol-5-yl)amino]-5-[4-(2-piperidin-1-ylethoxy)phenyl]nicotinonitrile], 84 nM.
Same read-out and setting: as for `Cc1cc2[nH]ccc2cc1Nc1c(C#N)cncc1-c1ccc(OCCN2CCC(O)CC2)cc1` [Compound 505, 5-{4-[2-(4-hydroxypiperidin-1-yl)ethoxy]phenyl}-4-[(6-methyl-1H-indol-5-yl)amino]nicotinonitrile], the figure is 76 nM.
As to `Cc1cc2[nH]ccc2cc1Nc1c(C#N)cncc1-c1ccc(OCCN2CCC(N3CCCC3)CC2)cc1` [Compound 506, 4-[(6-methyl-1H-indol-5-yl)amino]-5-{4-[2-(4-pyrrolidin-1-ylpiperidin-1-yl)ethoxy]phenyl}nicotinonitrile], the IC50 under setting [1] amounted to 83 nM.
Still for that read-out and setting: as for `Cc1c(Nc2c(C#N)cncc2-c2ccc(N3CCOCC3)nc2)ccc2[nH]ccc12` [Compound 507, 4-[(4-methyl-1H-indol-5-yl)amino]-6′-morpholin-4-yl-3,3′-bipyridine-5-carbonitrile], the figure is 30 nM; as for `Cc1c(Nc2c(C#N)cncc2-c2ccc(N3CCCCC3)nc2)ccc2[nH]ccc12` [Compound 508, 4-[(4-methyl-1H-indol-5-yl)amino]-6′-piperidin-1-yl-3,3′-bipyridine-5-carbonitrile], 78 nM; as for `Cc1c(Nc2c(C#N)cncc2-c2cncnc2)ccc2[nH]ccc12` [Compound 509, 4-[(4-methyl-1H-indol-5-yl)amino]-5-pyrimidin-5-ylnicotinonitrile], 261 nM.
On the same count and under the same terms, the value for `Cc1c(Nc2c(C#N)cncc2-c2cnc(N3CCCCC3)nc2)ccc2[nH]ccc12` [Compound 510, 4-[(4-methyl-1H-indol-5-yl)amino]-5-(2-piperidin-1-ylpyrimidin-5-yl)nicotinonitrile] was 300 nM.
On the same count and under the same terms, the value for `Cc1c(Nc2c(C#N)cncc2-c2cnc(N3CCOCC3)nc2)ccc2[nH]ccc12` [Compound 511, 4-[(4-methyl-1H-indol-5-yl)amino]-5-(2-morpholin-4-ylpyrimidin-5-yl)nicotinonitrile] was 83 nM.
With `Cc1c(Nc2c(C#N)cncc2-c2cnc(N3CCCC3)nc2)ccc2[nH]ccc12` [Compound 512, 4-[(4-methyl-1H-indol-5-yl)amino]-5-(2-pyrrolidin-1-ylpyrimidin-5-yl)nicotinonitrile], under setting [1], the IC50 came to 215 nM.
The same measure, in the same setting: as for `Cc1c(Nc2c(C#N)cncc2-c2cnc(N(C)C)nc2)ccc2[nH]ccc12` [Compound 513, 5-[2-(dimethylamino)pyrimidin-5-yl]-4-[(4-methyl-1H-indol-5-yl)amino]nicotinonitrile], the figure is 125 nM; as for `Cc1c(Nc2c(C#N)cncc2-c2cc3ccccc3s2)ccc2[nH]ccc12` [Compound 514, 5-(1-benzothien-2-yl)-4-[(4-methyl-1H-indol-5-yl)amino]nicotinonitrile], 23 nM.
As to `Cc1c(Nc2c(C#N)cncc2-c2csc(C=O)c2)ccc2[nH]ccc12` [Compound 516, 5-(5-formyl-3-thienyl)-4-[(4-methyl-1H-indol-5-yl)amino]nicotinonitrile], the half-inhibitory concentration (IC50) under setting [1] was 5 nM.
For the molecule `Cc1c(Nc2c(C#N)cncc2-c2cc(C=O)co2)ccc2[nH]ccc12` [Compound 517, 5-(4-formyl-2-furyl)-4-[(4-methyl-1H-indol-5-yl)amino]nicotinonitrile], the IC50 under setting [1] was determined as 8 nM.
Same read-out and setting: the value for `Cc1c(Nc2c(C#N)cncc2-c2csc(CN3CCN(C)CC3)c2)ccc2[nH]ccc12` [Compound 518, 4-[(4-methyl-1H-indol-5-yl)amino]-5-{5-[(4-methylpiperazin-1-yl)methyl]-3-thienyl}nicotinonitrile] was 5 nM.
On to `Cc1c(Nc2c(C#N)cncc2-c2cccnc2)ccc2[nH]ccc12` [Compound 519, 4-[(4-methyl-1H-indol-5-yl)amino]-3,3′-bipyridine-5-carbonitrile], for which the concentration for half-maximal inhibition (IC50) under setting [1] amounted to 36 nM.
The same measure, in the same setting: as for `CN1CCN(CCOc2ccc(-c3cncc(C#N)c3Nc3ccc4[nH]ccc4c3)cc2)CC1` [Compound 520, 4-(1H-indol-5-ylamino)-5-{4-[2-(4-methylpiperazin-1-yl)ethoxy]phenyl}nicotinonitrile], the figure is 73 nM.
With `Cc1c(Nc2c(C#N)cncc2-c2cc3cc(CN4CCN(C)CC4)ccc3s2)ccc2[nH]ccc12` [Compound 521, 4-[(4-methyl-1H-indol-5-yl)amino]-5-{5-[(4-methylpiperazin-1-yl)methyl]-1-benzothien-2-yl}nicotinonitrile], the IC50 amounted to 1 nM.
On to `COc1ccc(-c2cncc(C#N)c2Nc2cnc3[nH]ccc3c2Cl)cc1OC` [Compound 522, 4-[(4-chloro-1H-pyrrolo[2,3-b]pyridin-5-yl)amino]-5-(3,4-dimethoxyphenyl)nicotinonitrile], for which the IC50 under setting [1] amounted to 20 nM.
The same measure, in the same setting: as for `COc1ccc(-c2c[n+]([O-])cc(C#N)c2Nc2ccc3[nH]ccc3c2)cc1OC` [Compound 523, 5-(3,4-dimethoxyphenyl)-4-(1H-indol-5-ylamino)nicotinonitrile 1-oxide], the figure is 737 nM; as for `COc1ccc(-c2cncc(C#N)c2N[C@H]2CC[C@H](N)CC2)cc1OC` [Compound 524, 4-[(trans-4-aminocyclohexyl)amino]-5-(3,4-dimethoxyphenyl)nicotinonitrile], 4100 nM; as for `CCCCNC(=O)Nc1ccc(-c2cncc(C#N)c2Nc2ccc3[nH]ccc3c2C)cc1` [Compound 525, 1-butyl-3-(4-{5-cyano-4-[(4-methyl-1H-indol-5-yl)amino]pyridin-3-yl}phenyl)urea], 7 nM.
For `COC(=O)Nc1ccc(-c2cncc(C#N)c2Nc2ccc3[nH]ccc3c2C)cc1` [Compound 526, methyl (4-{5-cyano-4-[(4-methyl-1H-indol-5-yl)amino]pyridin-3-yl}phenyl)carbamate], under setting [1], the IC50 is 10 nM.
On the same count and under the same terms, the value for `Cc1c(Nc2c(C#N)cncc2-c2ccc(NC(=O)OCc3ccccc3)c(F)c2)ccc2[nH]ccc12` [Compound 527, benzyl (4-{5-cyano-4-[(4-methyl-1H-indol-5-yl)amino]pyridin-3-yl}-2-fluorophenyl)carbamate] was 27 nM; that for `COc1ccc(COC(=O)Nc2ccc(-c3cncc(C#N)c3Nc3ccc4[nH]ccc4c3C)cc2F)cc1` [Compound 528, 4-methoxybenzyl (4-{5-cyano-4-[(4-methyl-1H-indol-5-yl)amino]pyridin-3-yl}-2-fluorophenyl)carbamate] was 40 nM.
